Assay results as given in patent US11590116B2 (THERAVANCE BIOPHARMA R&D IP, LLC, priority 2019, dated 2023).

How the values were obtained:
[1] = test system: TGF-β-stimulated SMAD3 phosphorylation in BEAS-2B cells; test: Cellular ALK5 potency assay, inhibition of TGF-β stimulated pSMAD3 formation in BEAS-2B cells; format: cell-based; conditions: Homo sapiens; inhibition of TGF-β stimulated pSMAD3 formation, BEAS-2B cells; read-out: BEAS2B pIC50 (converted)
Outline: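 BEAS-2B human lung epithelial cells pre-treated 1 h at 37° C with compound in HBSS/25 mM HEPES/1% BSA, then stimulated 30 min with 10 ng/mL TGF-β (final). Lysates assayed for pSMAD3 by AlphaLISA; pIC50 from dose-dependent change versus stimulated untreated cells.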

[2] = biological target: T1, recombinant human ALK5 (TGF-βR1) protein (Homo sapiens, UniProt P36897); test: Biochemical ALK5 (TGF-βR1) assay to measure pKi (LANCE Ultra ULight kinase assay); conditions: apparent pKi from pIC50 by Cheng-Prusoff, read-out: ALK5 pKi (converted)
T1 construct: purchased Life Technologies PR9075A
T1 sequence (P36897 34-503): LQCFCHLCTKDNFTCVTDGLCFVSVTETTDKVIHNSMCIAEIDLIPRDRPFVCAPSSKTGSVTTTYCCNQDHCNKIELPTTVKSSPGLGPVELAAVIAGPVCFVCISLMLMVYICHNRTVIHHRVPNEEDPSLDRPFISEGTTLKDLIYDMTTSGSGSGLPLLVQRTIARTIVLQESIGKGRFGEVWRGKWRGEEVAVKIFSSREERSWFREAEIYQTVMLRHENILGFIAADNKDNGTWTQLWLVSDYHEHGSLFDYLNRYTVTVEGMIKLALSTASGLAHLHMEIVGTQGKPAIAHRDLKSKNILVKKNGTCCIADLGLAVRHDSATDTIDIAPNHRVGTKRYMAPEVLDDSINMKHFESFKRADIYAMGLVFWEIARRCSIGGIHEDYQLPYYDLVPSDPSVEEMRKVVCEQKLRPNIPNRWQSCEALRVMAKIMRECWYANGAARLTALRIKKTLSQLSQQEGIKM
Outline: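 Compounds (10 μM to 25 pM) preincubated 60 minutes at room temperature with enzyme, then reaction run 60 minutes at 37° C with ATP added as 125 μM (5× final). Stopped with EDTA plus Eu-anti-phospho-Topoisomerase 2-alpha (Thr1342) antibody, TR-FRET read at 665 nm; pIC50 converted to pKi via Cheng-Prusoff.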

Row | Ki [2] [nM] | Compound | IC50 [1] [nM]
1 | < 0.0316 | Cc1cccc(-c2[nH]cnc2-c2ccc3ncc(-c4csc(C(=O)OC5CCNCC5)n4)cc3c2)n1 [Compound 1146, 4-piperidyl 4-[6-[5-(6-methyl-2-pyridyl)-1H-imidazol-4-yl]-3-quinolyl]thiazole-2-carboxylate] | 25.1 to 158
2 | 0.0398 to 0.316 | COC(=O)[C@H]1CNCCN1CCNc1cnc2ccc(-c3nc[nH]c3-c3cccc(C)n3)cc2c1 [Compound 723, methyl (2R)-1-[2-[[6-[5-(6-methyl-2-pyridyl)-1H-imidazol-4-yl]-3-quinolyl]amino]ethyl]piperazine-2-carboxylate] | 200 to 1260
3 | < 0.0316 | Cc1cccc(-c2[nH]ncc2-c2ccc3ncc(C(=O)OCCC4CNC4)cc3c2)n1 [Compound 1204, 2-(azetidin-3-yl)ethyl 6-[5-(6-methyl-2-pyridyl)-1H-pyrazol-4-yl]quinoline-3-carboxylate] | 25.1 to 158
4 | < 0.0316 | Cc1cccc(-c2n[nH]cc2-c2ccc3ncc(-c4ccc[nH]4)cc3n2)n1 [Compound 591, 2-[3-(6-methyl-2-pyridyl)-1H-pyrazol-4-yl]-7-(1H-pyrrol-2-yl)-1,5-naphthyridine] | < 20
5 | < 0.0316 | Cc1cccc(-c2[nH]cnc2-c2ccc3ncc(-c4cc(C(=O)OCC5CNC5)cs4)cc3c2)n1 [Compound 1070, azetidin-3-ylmethyl 5-[6-[5-(6-methyl-2-pyridyl)-1H-imidazol-4-yl]-3-quinolyl]thiophene-3-carboxylate] | 25.1 to 158
6 | < 0.0316 | Cc1cccc(-c2[nH]cnc2-c2ccc3ncc(-c4ncc(C(=O)O[C@H]5CCNC5)s4)cc3c2)n1 [Compound 1160, [(3S)-pyrrolidin-3-yl] 2-[6-[5-(6-methyl-2-pyridyl)-1H-imidazol-4-yl]-3-quinolyl]thiazole-5-carboxylate] | < 20
7 | 0.398 to 3.16 | Cc1cccc(-c2[nH]ncc2-c2ccc3nccc(C(=O)O[C@H]4C[C@@H](N)C4)c3c2)n1 [Compound 1047, (3-aminocyclobutyl) 6-[5-(6-methyl-2-pyridyl)-1H-pyrazol-4-yl]quinoline-4-carboxylate] | 25.1 to 158
8 | 0.0398 to 0.316 | Cc1cccc(-c2n[nH]cc2-c2ccc3ncc(NCCN4C[C@@H](C)N[C@@H](C)C4)cc3n2)n1 [Compound 516, 6-[3-(6-methyl-2-pyridyl)-1H-pyrazol-4-yl]-N-[2-[rac-(3R,5S)-3,5-dimethylpiperazin-1-yl]ethyl]-1,5-naphthyridin-3-amine] | 25.1 to 158
9 | 0.0398 to 0.316 | Cc1cccc(-c2[nH]cnc2-c2ccc3ncc(-c4nccc(C(=O)OC5CCNCC5)n4)cc3c2)n1 [Compound 1102, 4-piperidyl 2-[6-[5-(6-methyl-2-pyridyl)-1H-imidazol-4-yl]-3-quinolyl]pyrimidine-4-carboxylate] | 200 to 1260
10 | 0.0398 to 0.316 | Cc1cccc(-c2[nH]cnc2-c2ccc3ncc(-c4ccnc(C(=O)OCC5CNC5)c4)cc3c2)n1 [Compound 1086, azetidin-3-ylmethyl 4-[6-[5-(6-methyl-2-pyridyl)-1H-imidazol-4-yl]-3-quinolyl]pyridine-2-carboxylate] | 200 to 1260
11 | 0.398 to 3.16 | CC(=O)Oc1ccnc2ccc(-c3c[nH]nc3-c3cccc(C)n3)nc12 [Compound 857, [6-[3-(6-methyl-2-pyridyl)-1H-pyrazol-4-yl]-1,5-naphthyridin-4-yl]acetate] | 25.1 to 158
12 | < 0.0316 | Cc1cccc(-c2[nH]cnc2-c2ccc3ncc(-c4csc(C(=O)O)n4)cc3c2)n1 [Compound 1152, 4-[6-[5-(6-methyl-2-pyridyl)-1H-imidazol-4-yl]-3-quinolyl]thiazole-2-carboxylic acid] | < 20
13 | < 0.0316 | Cc1cccc(-c2[nH]cnc2-c2ccc3ncc(-c4nc(C(=O)OCCNC5CNC5)cs4)cc3c2)n1 [Compound 1254, 2-(azetidin-3-ylamino)ethyl 2-[6-[5-(6-methyl-2-pyridyl)-1H-imidazol-4-yl]-3-quinolyl]thiazole-4-carboxylate] | 200 to 1260

Further lines, the compound ahead of its results:

Row | Compound | Ki [2] [nM] | IC50 [1] [nM]
14 | Cc1nc(-c2n[nH]cc2-c2ccc3ncc(-c4cnc5n4CCCN5)cc3n2)ccc1F [Compound 123, 2-[3-(5-fluoro-6-methyl-2-pyridyl)-1H-pyrazol-4-yl]-7-(5,6,7,8-tetrahydroimidazo[1,2-a]pyrimidin-3-yl)-1,5-naphthyridine] | 0.0398 to 0.316 | 25.1 to 158
15 | Cc1cccc(-c2n[nH]cc2-c2ccc3ncc(CNCCN4CCN(C(C)C)CC4)cc3n2)n1 [Compound 324, 2-(4-isopropylpiperazin-1-yl)-N-[[6-[3-(6-methyl-2-pyridyl)-1H-pyrazol-4-yl]-1,5-naphthyridin-3-yl]methyl]ethanamine] | 0.398 to 3.16 | 25.1 to 158
16 | Cc1cccc(-c2nnn(Cc3ccccc3)c2-c2ccc3ncc(N4CCNCC4)cc3c2)n1 [Compound 382, 6-[3-benzyl-5-(6-methyl-2-pyridyl)triazol-4-yl]-3-piperazin-1-yl-quinoline] | 0.0398 to 0.316 | 25.1 to 158
17 | CNCCn1cc(-c2cnc3ccc(-c4nn[nH]c4-c4cccc(C)n4)nc3c2)cn1 [Compound 29, N-methyl-2-(4-(6-(5-(6-methylpyridin-2-yl)-1H-1,2,3-triazol-4-yl)-1,5-naphthyridin-3-yl)-1H-pyrazol-1-yl)ethan-1-amine] | < 0.0316 | 200 to 1260
18 | Cc1cccc(-c2n[nH]cc2-c2ccc3ncc(C4=CCNCC4)cc3n2)n1 [Compound 15, 2-[3-(6-methyl-2-pyridyl)-1H-pyrazol-4-yl]-7-(1,2,3,6-tetrahydropyridin-4-yl)-1,5-naphthyridine] | < 0.0316 | < 20
19 | Cc1cccc(-c2n[nH]cc2-c2ccc3ncc(-c4c(C)nn(C)c4C)cc3n2)n1 [Compound 426, 2-[3-(6-methyl-2-pyridyl)-1H-pyrazol-4-yl]-7-(1,3,5-trimethylpyrazol-4-yl)-1,5-naphthyridine] | 0.0398 to 0.316 | 25.1 to 158
20 | Cc1cccc(-c2c(-c3ccc4ncc(N5CCCNCC5)cc4c3)nnn2Cc2ccccc2)n1 [Compound 360, 6-[1-benzyl-5-(6-methyl-2-pyridyl)triazol-4-yl]-3-(1,4-diazepan-1-yl)quinoline] | 0.398 to 3.16 | 1580 to 10000
21 | CNCCN1CCn2cc(-c3cnc4ccc(-c5c[nH]nc5-c5cccc(C)n5)nc4c3)nc2C1 [Compound 262, N-methyl-2-[2-[6-[3-(6-methyl-2-pyridyl)-1H-pyrazol-4-yl]-1,5-naphthyridin-3-yl]-6,8-dihydro-5H-imidazo[1,2-a]pyrazin-7-yl]ethanamine] | 0.0398 to 0.316 | 200 to 1260
22 | Cc1cccc(-c2n[nH]cc2-c2ccc3ncc(N4CC(N(C)C)C4)cc3n2)n1 [Compound 368, N,N-dimethyl-1-[6-[3-(6-methyl-2-pyridyl)-1H-pyrazol-4-yl]-1,5-naphthyridin-3-yl]azetidin-3-amine] | < 0.0316 | 25.1 to 158
23 | Cc1cccc(-c2n[nH]cc2-c2ccc3ncc(N4CCN(CC(F)(F)F)CC4)cc3n2)n1 [Compound 266, 2-[3-(6-methyl-2-pyridyl)-1H-pyrazol-4-yl]-7-[4-(2,2,2-trifluoroethyl)piperazin-1-yl]-1,5-naphthyridine] | 0.0398 to 0.316 | 25.1 to 158
24 | Cc1cccc(-c2[nH]cnc2-c2ccc3ncc(C4=CCC(C(=O)O)CC4)cc3c2)n1 (centres unmarked) [Compound 461, 4-[6-[5-(6-methyl-2-pyridyl)-1H-imidazol-4-yl]-3-quinolyl]cyclohex-3-ene-1-carboxylic acid] | 0.0398 to 0.316 | 25.1 to 158
25 | Cc1cccc(-c2n[nH]cc2-c2ccc3ncc(NCCN4CCN(C(C)C)CC4)cc3c2)n1 [Compound 428, N-[2-(4-isopropylpiperazin-1-yl)ethyl]-6-[3-(6-methyl-2-pyridyl)-1H-pyrazol-4-yl]quinolin-3-amine] | 0.0398 to 0.316 | 25.1 to 158
26 | Cc1cccc(-c2n[nH]cc2-c2ccc3ncc(-c4cnn(CC(=O)O)c4)cc3n2)n1 [Compound 240, 2-[4-[6-[3-(6-methyl-2-pyridyl)-1H-pyrazol-4-yl]-1,5-naphthyridin-3-yl]pyrazol-1-yl]acetic acid] | < 0.0316 | 25.1 to 158
27 | Cc1cccc(-c2n[nH]cc2-c2ccc3ncc(-c4nnc5n4CCNC5)cc3n2)n1 [Compound 40, 2-[3-(6-methyl-2-pyridyl)-1H-pyrazol-4-yl]-7-(5,6,7,8-tetrahydro-[1,2,4]triazolo[4,3-a]pyrazin-3-yl)-1,5-naphthyridine] | 3.98 to 31.6 | 1580 to 10000
28 | Cc1cccc(-c2[nH]cnc2-c2ccc3ncc(NC4CCNCC4)cc3c2)n1 [Compound 187, 6-[5-(6-methyl-2-pyridyl)-1H-imidazol-4-yl]-N-(4-piperidyl)quinolin-3-amine] | 0.0398 to 0.316 | 200 to 1260
